Laboratory results reported in article PMC9908026 (Science Advances, 2023).

Target: T1, EcGlyRS ((αβ)2 orphan GlyRS, full-length; EcGlyRS_FL) (Escherichia coli, UniProt P00960)
T1 construct: gene glyQ; full-length α and β subunits co-expressed in E. coli BL21(DE3); C-terminal His6 tag on β, no cleavage told; (αβ)2 heterotetramer; with Glycine--tRNA ligase beta subunit
T1 sequence (P00960 1-303): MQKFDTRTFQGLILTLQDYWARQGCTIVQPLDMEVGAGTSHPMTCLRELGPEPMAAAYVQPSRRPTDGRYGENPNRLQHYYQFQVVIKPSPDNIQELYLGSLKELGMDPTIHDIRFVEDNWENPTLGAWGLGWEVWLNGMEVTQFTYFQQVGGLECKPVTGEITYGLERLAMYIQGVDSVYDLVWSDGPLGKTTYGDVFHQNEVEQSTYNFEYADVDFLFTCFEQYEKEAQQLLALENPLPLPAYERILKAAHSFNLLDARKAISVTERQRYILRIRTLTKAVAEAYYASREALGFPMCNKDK
T1 sequence (P00961 2-689 partner): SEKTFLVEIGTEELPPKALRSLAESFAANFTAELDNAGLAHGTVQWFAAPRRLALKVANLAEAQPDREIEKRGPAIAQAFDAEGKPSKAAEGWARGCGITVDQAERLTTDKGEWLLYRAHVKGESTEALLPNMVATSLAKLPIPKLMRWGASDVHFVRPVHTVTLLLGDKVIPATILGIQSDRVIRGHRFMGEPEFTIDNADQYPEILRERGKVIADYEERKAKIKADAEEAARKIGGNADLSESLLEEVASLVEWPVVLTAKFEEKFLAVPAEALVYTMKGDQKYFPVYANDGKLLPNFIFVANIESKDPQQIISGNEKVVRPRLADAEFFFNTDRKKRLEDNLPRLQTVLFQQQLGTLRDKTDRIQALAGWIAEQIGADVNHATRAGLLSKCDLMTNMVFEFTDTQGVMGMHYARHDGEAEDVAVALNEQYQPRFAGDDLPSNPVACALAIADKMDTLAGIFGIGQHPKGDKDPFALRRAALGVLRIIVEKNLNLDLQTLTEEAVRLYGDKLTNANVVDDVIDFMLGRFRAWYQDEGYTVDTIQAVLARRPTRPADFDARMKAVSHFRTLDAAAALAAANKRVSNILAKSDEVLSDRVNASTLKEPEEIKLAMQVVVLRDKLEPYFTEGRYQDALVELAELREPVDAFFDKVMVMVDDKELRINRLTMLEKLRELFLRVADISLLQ
Assay: ATP consumption assay (Kinase-Glo luminescence)
Format: biochemical
Conditions: 4 μM ATP, 500 μM glycine, tRNA-Gly(GCC) 0.25 mg/ml, 40 mM MgCl2, pH 7.5, room temperature; 50 nM enzyme

With `Nc1ncnc2c1ncn2[C@@H]1O[C@H](COP(=O)(O)OP(=O)(O)OP(=O)(O)O)[C@@H](O)[C@H]1O` [ATP] the “ATP consumption assay (Kinase-Glo luminescence)” value was “An ATP consumption assay was used to evaluate the aminoacylation activity of EcGlyRS on tRNA^Gly”.
